Source: ChEMBL document CHEMBL1201862, “PubChem BioAssay data set” (2004)
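Briefly, cells in 96-well plates were exposed to five compound concentrations for 48 h, and endpoints were estimated by linear interpolation. The concentration for 50% growth inhibition is given as GI50.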 Active and inactive are the calls of the source. Cut-off read from the data, not from the text of the source: active = GI50 up to about 1.1 µM and inactive = higher.

Key:
Assay in all cases: DTP human tumour cell line panel, 48 h
SW-620 = system: SW-620
UO-31 = system: UO-31
HOP-92 = system: HOP-92
SF-539 = system: SF-539
HT-29 = system: HT-29
HCT-116 = system: HCT-116
UACC-257 = system: UACC-257
SF-268 = system: SF-268
SK-OV-3 = system: SK-OV-3
SNB-19 = system: SNB-19
IGROV-1 = system: IGROV-1
M14 = system: M14
LOX IMVI = system: LOX IMVI
SK-MEL-5 = system: SK-MEL-5
MCF7 = system: MCF7
CAKI-1 = system: CAKI-1
SN12C = system: SN12C
U-251 = system: U-251
COLO 205 = system: COLO 205
786-0 = system: 786-0
OVCAR-8 = system: OVCAR-8
MDA-N = system: MDA-N
DU-145 = system: DU-145
Hs-578T = system: Hs-578T
SR = system: SR
SF-295 = system: SF-295
Malme-3M = system: Malme-3M
A549 = system: A549
OVCAR-3 = system: OVCAR-3
HOP-62 = system: HOP-62
NCI-H460 = system: NCI-H460
ACHN = system: ACHN
HL-60 = system: HL-60
HCC 2998 = system: HCC 2998
NCI-H23 = system: NCI-H23
OVCAR-4 = system: OVCAR-4
RPMI-8226 = system: RPMI-8226
MDA-MB-231 = system: MDA-MB-231
MOLT-4 = system: MOLT-4
OVCAR-5 = system: OVCAR-5
NCI-H522 = system: NCI-H522
NCI-H226 = system: NCI-H226
HCT-15 = system: HCT-15
PC-3 = system: PC-3
MDA-MB-435 = system: MDA-MB-435
BT-549 = system: BT-549
KM12 = system: KM12
K562 = system: K562
UACC-62 = system: UACC-62
CCRF-CEM = system: CCRF-CEM
NCI/ADR-RES = system: NCI/ADR-RES
SNB-75 = system: SNB-75
SK-MEL-2 = system: SK-MEL-2
TK-10 = system: TK-10
A498 = system: A498
SK-MEL-28 = system: SK-MEL-28
RXF 393 = system: RXF 393
EKVX = system: EKVX

Compound: COc1cc(C2CC(C)(N3CCOCC3)Oc3cc4c(cc32)OCO4)cc(OC)c1OC (configuration not stated)
- GI50 (SW-620): 0.136 µM (active)
- GI50 (UO-31): 12.2 µM (inactive)
- GI50 (HOP-92): 2.67 µM (inactive)
- GI50 (SF-539): 0.0619 µM (active)
- GI50 (HT-29): 0.131 µM (active)
- GI50 (HCT-116): 0.129 µM (active)
- GI50 (UACC-257): > 50.1 µM (inactive)
- GI50 (SF-268): 4.83 µM (inactive)
- GI50 (SK-OV-3): 0.482 µM (active)
- GI50 (SNB-19): 0.589 µM (active)
- GI50 (IGROV-1): 0.222 µM (active)
- GI50 (M14): 0.421 µM (active)
- GI50 (LOX IMVI): 0.136 µM (active)
- GI50 (SK-MEL-5): 0.103 µM (active)
- GI50 (MCF7): 0.458 µM (active)
- GI50 (CAKI-1): 0.177 µM (active)
- GI50 (SN12C): 0.189 µM (active)
- GI50 (U-251): 0.0577 µM (active)
- GI50 (COLO 205): 0.845 µM (active)
- GI50 (786-0): 0.157 µM (active)
- GI50 (OVCAR-8): 0.531 µM (active)
- GI50 (MDA-N): 0.0452 µM (active)
- GI50 (DU-145): 0.167 µM (active)
- GI50 (Hs-578T): 0.191 µM (active)
- GI50 (SR): 0.206 µM (active)
- GI50 (SF-295): 0.104 µM (active)
- GI50 (Malme-3M): 0.0726 µM (active)
- GI50 (A549): 2.14 µM (inactive)
- GI50 (OVCAR-3): 0.207 µM (active)
- GI50 (HOP-62): 0.27 µM (active)
- GI50 (NCI-H460): 0.156 µM (active)
- GI50 (ACHN): 0.243 µM (active)
- GI50 (HL-60): 0.0228 µM (active)
- GI50 (HCC 2998): 0.427 µM (active)
- GI50 (NCI-H23): 0.209 µM (active)
- GI50 (OVCAR-4): 0.275 µM (active)
- GI50 (RPMI-8226): 0.0263 µM (active)
- GI50 (MDA-MB-231): 0.0748 µM (active)
- GI50 (MOLT-4): 0.136 µM (active)
- GI50 (OVCAR-5): > 100 µM (inactive)
- GI50 (NCI-H522): 0.226 µM (active)
- GI50 (NCI-H226): 5.35 µM (inactive)
- GI50 (HCT-15): 0.136 µM
- GI50 (PC-3): 0.116 µM (active)
- GI50 (MDA-MB-435): < 0.01 µM (active)
- GI50 (BT-549): > 100 µM (inactive)
- GI50 (KM12): 0.0634 µM (active)
- GI50 (K562): 0.026 µM (active)
- GI50 (UACC-62): 0.139 µM (active)
- GI50 (CCRF-CEM): 0.0352 µM (active)
- GI50 (NCI/ADR-RES): 0.2 µM (active)

Compound: CCN1C(=O)c2cc(OC)c(OC)cc2C(=O)C12OC(=O)c1cc3c(cc12)OCO3 (configuration not stated)
- GI50 (SNB-75): 23 µM (inactive)
- GI50 (SW-620): > 100 µM (inactive)
- GI50 (SK-MEL-2): 20.2 µM (inactive)
- GI50 (UO-31): > 100 µM (inactive)
- GI50 (HOP-92): 55.3 µM (inactive)
- GI50 (SF-539): 53.2 µM (inactive)
- GI50 (HT-29): 87.3 µM (inactive)
- GI50 (HCT-116): 33.1 µM (inactive)
- GI50 (UACC-257): > 100 µM (inactive)
- GI50 (SF-268): 69.7 µM (inactive)
- GI50 (SNB-19): 39.5 µM (inactive)
- GI50 (IGROV-1): 97.9 µM (inactive)
- GI50 (M14): 97.3 µM (inactive)
- GI50 (TK-10): 75.7 µM (inactive)
- GI50 (LOX IMVI): 40.7 µM (inactive)
- GI50 (SK-MEL-5): 85.9 µM (inactive)
- GI50 (MCF7): 78.9 µM (inactive)
- GI50 (CAKI-1): > 100 µM (inactive)
- GI50 (SN12C): 61.5 µM (inactive)
- GI50 (U-251): 43 µM (inactive)
- GI50 (COLO 205): > 100 µM (inactive)
- GI50 (786-0): 22.4 µM (inactive)
- GI50 (OVCAR-8): 48 µM (inactive)
- GI50 (MDA-N): > 100 µM (inactive)
- GI50 (DU-145): 31.3 µM (inactive)
- GI50 (Hs-578T): 36.8 µM (inactive)
- GI50 (SR): 51.4 µM (inactive)
- GI50 (SF-295): 68.7 µM (inactive)
- GI50 (Malme-3M): > 100 µM (inactive)
- GI50 (A549): 36.9 µM (inactive)
- GI50 (OVCAR-3): 63.5 µM (inactive)
- GI50 (HOP-62): 49.4 µM (inactive)
- GI50 (NCI-H460): 43.4 µM (inactive)
- GI50 (ACHN): > 100 µM (inactive)
- GI50 (HCC 2998): 54.7 µM (inactive)
- GI50 (NCI-H23): > 100 µM (inactive)
- GI50 (OVCAR-4): 69.8 µM (inactive)
- GI50 (RPMI-8226): 24.1 µM (inactive)
- GI50 (MDA-MB-231): 41.4 µM (inactive)
- GI50 (A498): > 100 µM (inactive)
- GI50 (MOLT-4): > 100 µM (inactive)
- GI50 (OVCAR-5): > 100 µM (inactive)
- GI50 (SK-MEL-28): > 100 µM (inactive)
- GI50 (NCI-H522): > 100 µM (inactive)
- GI50 (NCI-H226): > 100 µM (inactive)
- GI50 (HCT-15): > 100 µM
- GI50 (PC-3): > 100 µM (inactive)
- GI50 (RXF 393): 25.8 µM (inactive)
- GI50 (MDA-MB-435): > 100 µM (inactive)
- GI50 (EKVX): > 100 µM (inactive)
- GI50 (BT-549): > 100 µM (inactive)
- GI50 (KM12): > 100 µM (inactive)
- GI50 (K562): > 100 µM (inactive)
- GI50 (UACC-62): 80.5 µM (inactive)
- GI50 (CCRF-CEM): 35.6 µM (inactive)
- GI50 (NCI/ADR-RES): > 100 µM (inactive)
